Measurements reported in the supplement of paper PMC8612539.
≈ marks a conversion by molar mass, not a printed value.

Tests used:
Mannheimia haemolytica = assay: minimum inhibitory concentration (MIC)
Procedure: (§1)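 Broth microdilution MIC (Sensititre BOPO7F bovine plate, CLSI methods) of 19 antimicrobials against field isolates of P. multocida, M. haemolytica, H. somni (deep nasopharyngeal swabs) and E. coli, Enterococcus spp. (rectal swabs) from weaned dairy heifers. Incubation 16-24 h at 35 C. MIC is the lowest concentration preventing visible growth. Values with <= or > lie at the tested range limits. Trimethoprim-sulfamethoxazole is given as the trimethoprim component of a 1:19 mixture.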

Enterococcus spp. = assay: minimum inhibitory concentration (MIC)
Procedure: as §1

CCCNC[C@]1(O)[C@H](C)O[C@@H](O[C@H]2[C@H](C)[C@@H](O[C@@H]3O[C@H](C)C[C@H](N(C)C)[C@H]3O)[C@](C)(O)C[C@@H](C)CN[C@H](C)[C@@H](O)[C@](C)(O)[C@@H](CC)OC(=O)[C@@H]2C)C[C@@]1(C)OC [Tulathromycin]
minimum inhibitory concentration [µg/mL]
Details	Enterococcus spp.	Mannheimia haemolytica
isolate (source animal id): 2	≤ 8	–
isolate (source animal id): 8	–	≤ 8
isolate (source animal id): 13	–	≤ 8
isolate (source animal id): 18	–	≤ 8
isolate (source animal id): 21	–	≤ 8
isolate (source animal id): 25	–	16 (≈ 19.8 µM)
isolate (source animal id): 27	–	16 (≈ 19.8 µM)
isolate (source animal id): 28	–	≤ 8
isolate (source animal id): 30	–	≤ 8
isolate (source animal id): 31	–	16 (≈ 19.8 µM)
isolate (source animal id): 32	–	≤ 8
isolate (source animal id): 34	–	≤ 8
isolate (source animal id): 35	> 64	–
isolate (source animal id): 36	–	16 (≈ 19.8 µM)
isolate (source animal id): 37	–	16 (≈ 19.8 µM)
isolate (source animal id): 40	–	≤ 8
isolate (source animal id): 41	–	≤ 8
isolate (source animal id): 42	≤ 8	–
isolate (source animal id): 43	–	≤ 8
isolate (source animal id): 44	≤ 8	–
isolate (source animal id): 46	–	16 (≈ 19.8 µM)
isolate (source animal id): 49	–	16 (≈ 19.8 µM)
isolate (source animal id): 50	–	16 (≈ 19.8 µM)
isolate (source animal id): 51	–	≤ 8
isolate (source animal id): 52	–	≤ 8
isolate (source animal id): 53	–	≤ 8
isolate (source animal id): 55	–	≤ 8
isolate (source animal id): 56	–	≤ 8
isolate (source animal id): 57	–	> 64
isolate (source animal id): 79	≤ 8	–
isolate (source animal id): 88	≤ 8	–
isolate (source animal id): 91	≤ 8	–
isolate (source animal id): 92	16 (≈ 19.8 µM)	–
isolate (source animal id): 100	–	16 (≈ 19.8 µM)
isolate (source animal id): 103	–	16 (≈ 19.8 µM)
isolate (source animal id): 107	–	16 (≈ 19.8 µM)
isolate (source animal id): 108	–	16 (≈ 19.8 µM)
isolate (source animal id): 111	≤ 8	–
isolate (source animal id): 112	–	> 64
isolate (source animal id): 113	–	> 64
isolate (source animal id): 121	–	16 (≈ 19.8 µM)
isolate (source animal id): 122	> 64	16 (≈ 19.8 µM)
isolate (source animal id): 123	≤ 8	> 64
isolate (source animal id): 126	–	64 (≈ 79.4 µM)
isolate (source animal id): 133	≤ 8	> 64
isolate (source animal id): 135	–	> 64
isolate (source animal id): 138	–	64 (≈ 79.4 µM)
isolate (source animal id): 141	–	> 64
isolate (source animal id): 142	–	64 (≈ 79.4 µM)
isolate (source animal id): 145	–	16 (≈ 19.8 µM)
isolate (source animal id): 149	–	≤ 8
isolate (source animal id): 151	–	≤ 8
isolate (source animal id): 152	–	16 (≈ 19.8 µM)
isolate (source animal id): 154	–	≤ 8
isolate (source animal id): 158	> 64	–
isolate (source animal id): 159	–	> 64
isolate (source animal id): 162	–	64 (≈ 79.4 µM)
isolate (source animal id): 168	≤ 8	–
isolate (source animal id): 169	≤ 8	–
isolate (source animal id): 170	–	≤ 8
isolate (source animal id): 171	≤ 8	≤ 8
isolate (source animal id): 172	–	≤ 8
isolate (source animal id): 173	–	≤ 8
isolate (source animal id): 175	> 64	–
isolate (source animal id): 177	≤ 8	–
isolate (source animal id): 179	–	≤ 8
isolate (source animal id): 180	–	≤ 8
isolate (source animal id): 181	≤ 8	–
isolate (source animal id): 182	≤ 8	–
isolate (source animal id): 183	≤ 8	≤ 8
isolate (source animal id): 186	–	≤ 8
isolate (source animal id): 187	≤ 8	≤ 8
isolate (source animal id): 188	–	≤ 8
isolate (source animal id): 190	≤ 8	≤ 8
isolate (source animal id): 191	–	≤ 8
isolate (source animal id): 192	–	≤ 8
isolate (source animal id): 194	≤ 8	–
isolate (source animal id): 195	≤ 8	–
isolate (source animal id): 197	≤ 8	–
isolate (source animal id): 201	–	≤ 8
isolate (source animal id): 202	–	≤ 8
isolate (source animal id): 209	–	≤ 8
isolate (source animal id): 211	≤ 8	≤ 8
isolate (source animal id): 214	16 (≈ 19.8 µM)	–
isolate (source animal id): 220	–	≤ 8
isolate (source animal id): 221	–	≤ 8
isolate (source animal id): 222	≤ 8	–
isolate (source animal id): 223	≤ 8	≤ 8
isolate (source animal id): 228	> 64	–
isolate (source animal id): 230	> 64	–
isolate (source animal id): 233	–	16 (≈ 19.8 µM)
isolate (source animal id): 235	> 64	–
isolate (source animal id): 236	≤ 8	–
isolate (source animal id): 237	–	32 (≈ 39.7 µM)
isolate (source animal id): 239	≤ 8	–
isolate (source animal id): 241	> 64	16 (≈ 19.8 µM)
isolate (source animal id): 244	≤ 8	–
isolate (source animal id): 246	≤ 8	–
isolate (source animal id): 247	> 64	–
isolate (source animal id): 250	≤ 8	–
isolate (source animal id): 252	> 64	16 (≈ 19.8 µM)
isolate (source animal id): 253	–	16 (≈ 19.8 µM)
isolate (source animal id): 259	–	> 64
isolate (source animal id): 260	–	16 (≈ 19.8 µM)
isolate (source animal id): 262	–	16 (≈ 19.8 µM)
isolate (source animal id): 268	> 64	–
isolate (source animal id): 282	≤ 8	> 64
isolate (source animal id): 285	> 64	–
isolate (source animal id): 287	–	16 (≈ 19.8 µM)
isolate (source animal id): 288	–	≤ 8
isolate (source animal id): 289	≤ 8	–
isolate (source animal id): 290	≤ 8	–
isolate (source animal id): 291	–	≤ 8
isolate (source animal id): 293	–	16 (≈ 19.8 µM)
isolate (source animal id): 296	≤ 8	–
isolate (source animal id): 298	≤ 8	> 64
isolate (source animal id): 299	–	> 64
isolate (source animal id): 300	–	≤ 8
isolate (source animal id): 301	≤ 8	–
isolate (source animal id): 302	–	> 64
isolate (source animal id): 304	–	> 64
isolate (source animal id): 306	–	≤ 8
isolate (source animal id): 308	–	≤ 8
isolate (source animal id): 309	–	≤ 8
isolate (source animal id): 310	> 64	–
isolate (source animal id): 313	–	32 (≈ 39.7 µM)
isolate (source animal id): 318	–	≤ 8
isolate (source animal id): 320	≤ 8	≤ 8
isolate (source animal id): 321	–	32 (≈ 39.7 µM)
isolate (source animal id): 323	–	> 64
isolate (source animal id): 324	–	16 (≈ 19.8 µM)
isolate (source animal id): 326	–	32 (≈ 39.7 µM)
isolate (source animal id): 328	–	32 (≈ 39.7 µM)
isolate (source animal id): 329	–	32 (≈ 39.7 µM)
isolate (source animal id): 331	≤ 8	–
isolate (source animal id): 333	≤ 8	32 (≈ 39.7 µM)
isolate (source animal id): 335	–	16 (≈ 19.8 µM)
isolate (source animal id): 338	–	16 (≈ 19.8 µM)
isolate (source animal id): 341	> 64	–
